According to patent US20100292081A1, “Herbicidal Control Using Sulfentrazone and Dithiopyr” (FMC Corporation, priority 2009, published 2010):

Legend:
Assay type in all cases: in vivo
[1] = system: shiny cudweed (Gnaphalium spicatum); test: Post-emergence control of shiny cudweed on turf plots (Example 3)
Text: (§1) The presence of a synergistic effect between the two active ingredients is established with the aid of the Colby equation (see Colby, S. R., “Calculating Synergistic and Antagonistic Responses of Herbicide Combinations”, Weeds 1967, 15, pg 20-22): E=X+Y−(XY/100).
(§2) Using the method of Colby, the presence of a synergistic interaction between two active ingredients is established by first calculating the expected activity, ‘E’, of the mixture based on activities of the two components applied alone. In the equation above, ‘X’ is the herbicidal activity in percentage control of sulfentrazone applied alone at rate ‘x’. The ‘Y’ term is the herbicidal activity of dithiopyr applied alone at rate ‘y’. The equation calculates ‘E’, the herbicidal activity of the mixture of ‘X’ at rate ‘x’ with ‘Y’ at rate ‘y’. If ‘E’ is lower than the observed activity, synergy is present. If the herbicidal effects are strictly additive, and no interaction has occurred, ‘E’ will be equal to or higher than the observed activity.
(§3) Control of large crabgrass (Digitaria sanguinalis), parsley piert (Alchenilla arvensis), common chickweed (Stellaria media) and shiny cudweed (Gnaphalium spicatum) was evaluated at 23 days after treatment (DAT) for each test rate. In order t to provide a measure of the effectiveness of a herbicide's performance weed control ratings were based on visual observations of the presence or absence of various weeds or of symptoms (necrosis, wilting, curling of leaves, discoloration etc.) on weeds compared to lack of symptoms. Ratings are based on the 0 to 100 rating system, where 0 equals no control and 100 equals complete control, which generally makes use of direct-percentage figures. In this system the standard basis for comparison is an untreated weedy check. Counts are made of each weed species found in the untreated area of the study. This provides a basis to give a precise representation of both weed infestation and degree of control provided by various chemical treatments. Counts are made on randomly selected areas which are generally 1 square foot to 1 square yard in size. Ratings are made for each weed species found in the untreated treatments. For example, a random area in an untreated plot has 10 yellow nutsedge plants per square foot equaling 0% control. A treated plot has only 1 yellow nutsedge plant found in the randomly selected area equaling 90% control.
(§4) Test compositions containing sulfentrazone (Dismiss™ Turf Herbicide), dithiopyr (DIMENSION® Ultra 40WP Specialty Herbicide) and mixtures thereof, were diluted with water to provide the appropriate test rate concentrations.
(§5) The size of each experimental turf plot was 4 feet by 4 feet, treating the inner 10 ft^2 per plot. The application of each test composition was performed with a pressurized back-pack sprayer, calibrated to spray between 10 and 15 gallons per acre. Four replications were made for each test rate along an untreated control plot.
(§6) Pre-emergence control of crabgrass (Digitaria sp.) was evaluated 180 days after treatment (DAT). Post-emergence control of curly dock (Rumex crispus) and shiny cudweed (Gnaphalium spicatum) parsley were evaluated at 65 days after treatment for each test rate. The evaluation results were compared with results observed in untreated control plots in the same trials as described in Example 1 to determine % control and are summarized in Table 3 below. There was no damage to the turf grass at any rate tested. The Colby equation expected values are also in Table 3.

[2] = system: parsley piert (Alchenilla arvensis); test: Pre-emergent herbicidal evaluation on turf plots (Example 1), parsley piert
Text: as §1, §2, §4, §5
(§7) Control of large crabgrass (Digitaria sanguinalis), parsley piert (Alchenilla arvensis), common chickweed (Stellaria media) and shiny cudweed (Gnaphalium spicatum) was evaluated at 23 days after treatment (DAT) for each test rate. In order t to provide a measure of the effectiveness of a herbicide's performance weed control ratings were based on visual observations of the presence or absence of various weeds or of symptoms (necrosis, wilting, curling of leaves, discoloration etc.) on weeds compared to lack of symptoms. […]

[3] = system: large crabgrass (Digitaria sanguinalis); test: Pre-emergent herbicidal evaluation on turf plots (Example 1), large crabgrass
Text: as §1, §2, §4, §5
In order t to provide a measure of the effectiveness of a herbicide's performance weed control ratings were based on visual observations of the presence or absence of various weeds or of symptoms (necrosis, wilting, curling of leaves, discoloration etc.) on weeds compared to lack of symptoms. Ratings are based on the 0 to 100 rating system, where 0 equals no control and 100 equals complete control, which generally makes use of direct-percentage figures. In this system the standard basis for comparison is an untreated weedy check. […]

[4] = system: curly dock (Rumex crispus); test: Post-emergence control of curly dock on turf plots (Example 3)
Text: as §1, §2, §3, §4, §5, §6

[5] = system: common chickweed (Stellaria media); test: Pre-emergent herbicidal evaluation on turf plots (Example 1), common chickweed
Text: as §1, §2, §4, §5, §7

[6] = system: crabgrass (Digitaria sp.); test: Early post-emergent control of crabgrass on turf plots (Example 4); settings: 1 to 4 leaf stage, 45 DAT, X-77 0.25% V/V
Text: as §1, §2, §3
Test compositions containing sulfentrazone (Dismiss™ Turf Herbicide), dithiopyr (DIMENSION® Ultra 40WP Specialty Herbicide) and mixtures thereof, were diluted with water to provide the appropriate test rate concentrations. A non-ionic surfactant (X-77) was added to each test solution, 0.25% V/V. […]
Control of crabgrass (Digitaria sp.) was evaluated at 45 days after treatment for each test rate. […]

[7] = system: broadleaf weeds (medic, buckhorn plantain, clover, red sorrel, dandelion); test: Post-emergent herbicidal evaluation on turf plots (Example 2), broadleaf weeds in total; settings: 45 DAT, NIS 0.25% V/V
Text: as §1, §2, §3
Test compositions containing sulfentrazone (Dismiss™ Turf Herbicide), dithiopyr (DIMENSION® Ultra 40WP Specialty Herbicide) and mixtures thereof, were diluted with water to provide the appropriate test rate concentrations. A non-ionic surfactant (NIS) was added to each test solution, 0.25% V/V.
The size of each experimental turf plot was 4 feet by 4 feet, treating the inner 10 ft^2 per plot. The post-emergence application of each test composition was performed with a pressurized back-pack sprayer, calibrated to spray between 10 and 15 gallons per acre. Four replications were made for each test rate along an untreated control plot.
Control of broadleaf weeds was evaluated at 45 days after treatment (DAT) for each test rate. The broadleaf weeds included medic (Medicago sp.), buckhorn plantain (Plantago lanceolata), clover (Trifolium sp.), red sorrel (Rumex acetosella) and dandelion (Traxacum afficinale). Percent control of the broadleaf weeds was reported as a total number of broadleaf weeds controlled, not as individual species. The evaluation results were compared with results observed in untreated control plots in the same trials as described in Example 1 to determine % control and are summarized in Table 2 below. There was no damage to the turf grass at any rate tested. The Colby equation expected values are also in Table 2.

[8] = system: shiny cudweed (Gnaphalium spicatum); test: Pre-emergent herbicidal evaluation on turf plots (Example 1), shiny cudweed
Text: as §1, §2, §4, §5, §7

[9] = system: crabgrass (Digitaria sp.); test: Pre-emergence control of crabgrass on turf plots (Example 3)
Text: as §1, §2, §3, §4, §5, §6

With `Cc1nn(-c2cc(NS(C)(=O)=O)c(Cl)cc2Cl)c(=O)n1C(F)F` [Sulfentrazone, N-[2,4-dichloro-5-[4-difluoromethyl-4,5-dihydro-3-methyl-5-oxo-1H-1,2,4-triazol-1-yl]phenyl]methanesulfonamide] the “% Control of Weeds Shiny Cudweed 65 DAT Post-emergent application” value ([1]; 0.0625 lb/ac) was 30%, the “% Control of Weeds Shiny Cudweed 65 DAT Post-emergent application” value ([1]; 0.125 lb/ac) was 50% and the “% Control of Weeds Shiny Cudweed 65 DAT Post-emergent application” value ([1]; 0.25 lb/ac) was 50%. For the same molecule, the “% Control of Weeds Parsley Piert 23 DAT” value ([2]; 0.25 lb/ac) was 47%, the “% Control of Weeds Parsley Piert 23 DAT” value ([2]; .0125 lb/ac) was 40% and the “% Control of Weeds Large Crabgrass 132 DAT” value ([3]; 0.25 lb/ac) was 23%. For the same molecule, the “% Control of Weeds Large Crabgrass 132 DAT” value ([3]; .0125 lb/ac) was 7%, the “% Control of Weeds Curly Dock 65 DAT Post-emergent application” value ([4]; 0.0625 lb/ac) was 0% and the “% Control of Weeds Curly Dock 65 DAT Post-emergent application” value ([4]; 0.125 lb/ac) was 16%. The “% Control of Weeds Curly Dock 65 DAT Post-emergent application” value ([4]; 0.25 lb/ac) was 20%, the “% Control of Weeds Common Chickweed 23 DAT” value ([5]; 0.25 lb/ac) was 45% and the “% Control of Weeds Common Chickweed 23 DAT” value ([5]; .0125 lb/ac) was 23%. The “% Control of Crabgrass” value ([6]; 0.125 lb/ac) was 30%, the “% Control of Crabgrass” value ([6]; 0.25 lb/ac) was 36% and the “% Broadleaf Weed Cover” value ([7]; 0.125 lb/ac) was 15%. For the same molecule, the “% Control of Broadleaf Weeds” value ([7]; 0.125 lb/ac) was 16%, the “% Broadleaf Weed Cover” value ([7]; 0.25 lb/ac) was 10% and the “% Control of Broadleaf Weeds” value ([7]; 0.25 lb/ac) was 44%. For the same molecule, the “% Control of Weeds Shiny Cudweed 23 DAT” value ([8]; 0.25 lb/ac) was 43%, the “% Control of Weeds Shiny Cudweed 23 DAT” value ([8]; .0125 lb/ac) was 31% and the “% Control of Weeds Crabgrass 180 DAT Pre-emergent application” value ([9]; 0.0625 lb/ac) was 0%. For the same molecule, the “% Control of Weeds Crabgrass 180 DAT Pre-emergent application” value ([9]; 0.125 lb/ac) was 0% and the “% Control of Weeds Crabgrass 180 DAT Pre-emergent application” value ([9]; 0.25 lb/ac) was 0%.

With `CSC(=O)c1c(C(F)F)nc(C(F)(F)F)c(C(=O)SC)c1CC(C)C` [Dithiopyr, S,S′-dimethyl 2-(difluoromethyl)-4-(2-methylpropyl)-6-(trifluoromethyl)-3,5-pyridinedicarbothiolate] the “% Control of Weeds Shiny Cudweed 65 DAT Post-emergent application” value ([1]; 0.0125 lb/ac) was 53%, the “% Control of Weeds Shiny Cudweed 65 DAT Post-emergent application” value ([1]; 0.25 lb/ac) was 60% and the “% Control of Weeds Parsley Piert 23 DAT” value ([2]; 0.5 lb/ac) was 38%. For the same molecule, the “% Control of Weeds Large Crabgrass 132 DAT” value ([3]; 0.5 lb/ac) was 88%, the “% Control of Weeds Curly Dock 65 DAT Post-emergent application” value ([4]; 0.0125 lb/ac) was 36% and the “% Control of Weeds Curly Dock 65 DAT Post-emergent application” value ([4]; 0.25 lb/ac) was 60%. The “% Control of Weeds Common Chickweed 23 DAT” value ([5]; 0.5 lb/ac) was 53%, the “% Control of Crabgrass” value ([6]; 0.25 lb/ac) was 50% and the “% Control of Crabgrass” value ([6]; 0.5 lb/ac) was 88%. The “% Broadleaf Weed Cover” value ([7]; 0.125 lb/ac) was 21%, the “% Control of Broadleaf Weeds” value ([7]; 0.125 lb/ac) was 0% and the “% Broadleaf Weed Cover” value ([7]; 0.25 lb/ac) was 8%. The “% Control of Broadleaf Weeds” value ([7]; 0.25 lb/ac) was 55%, the “% Control of Weeds Shiny Cudweed 23 DAT” value ([8]; 0.5 lb/ac) was 29% and the “% Control of Weeds Crabgrass 180 DAT Pre-emergent application” value ([9]; 0.0125 lb/ac) was 59%. For the same molecule, the “% Control of Weeds Crabgrass 180 DAT Pre-emergent application” value ([9]; 0.25 lb/ac) was 23%.
